From ChEMBL document CHEMBL4507295 (2021)

How the values were obtained:
[1] = target: Angiopoietin-1 receptor (Homo sapiens) (UniProt Q02763); conditions: Compound concentration 1000.0 nM
[2] = target: Tyrosine-protein kinase Lck (Homo sapiens) (UniProt P06239); conditions: Compound concentration 1000.0 nM
[3] = target: Ribosomal protein S6 kinase alpha-6 (Homo sapiens) (UniProt Q9UK32); conditions: Compound concentration 1000.0 nM
[4] = target: Serine/threonine-protein kinase PAK 3 (Homo sapiens) (UniProt O75914); conditions: Compound concentration 1000.0 nM
[5] = target: Cyclin-dependent kinase-like 5 (Homo sapiens) (UniProt O76039); conditions: Compound concentration 1000.0 nM
[6] = target: Ephrin type-A receptor 3 (Homo sapiens) (UniProt P29320); conditions: Compound concentration 1000.0 nM
[7] = target: NUAK family SNF1-like kinase 1 (Homo sapiens) (UniProt O60285); conditions: Compound concentration 1000.0 nM
[8] = target: Dual specificity tyrosine-phosphorylation-regulated kinase 2 (Homo sapiens) (UniProt Q92630); conditions: Compound concentration 1000.0 nM
[9] = target: Interferon-induced, double-stranded RNA-activated protein kinase (Homo sapiens) (UniProt P19525); conditions: Compound concentration 1000.0 nM
[10] = target: Tyrosine-protein kinase Blk (Homo sapiens) (UniProt P51451); conditions: Compound concentration 1000.0 nM
[11] = test system: Phosphatidylinositol 4,5-bisphosphate 3-kinase catalytic subunit alpha isoform (Homo sapiens), P42336 [E542K]; conditions: Compound concentration 1000.0 nM
[12] = target: Mitogen-activated protein kinase kinase kinase 10 (Homo sapiens) (UniProt Q02779); conditions: Compound concentration 1000.0 nM
[13] = target: Tyrosine-protein kinase BTK (Homo sapiens) (UniProt Q06187); conditions: Compound concentration 1000.0 nM
[14] = target: Vascular endothelial growth factor receptor 1 (Homo sapiens) (UniProt P17948); test: Protein Tyrosine Kinase, FLT1 (VEGFR-1) Eurofins-Panlabs enzyme assay; conditions: Compound concentration 10.0 uM
[15] = target: Adenosine receptor A3 (Homo sapiens) (UniProt P0DMS8); conditions: Compound concentration 10.0 uM
[16] = target: Nociceptin receptor (Homo sapiens) (UniProt P41146); test: Orphanin ORL1 Eurofins-Panlabs radioligand binding assay; conditions: Compound concentration 10.0 uM
[17] = target: Melanocortin receptor 5 (Homo sapiens) (UniProt P33032); test: Inhibition of Melanocortin MC5 at 10 µM in the Eurofins-Panlabs radioligand binding assay (Eurofins_assay_251400); design: ligand concentration 0.035 nM; conditions: Compound concentration 10.0 uM
[18] = target: Muscarinic acetylcholine receptor M2 (Homo sapiens) (UniProt P08172); conditions: Compound concentration 10.0 uM
[19] = target: Delta-type opioid receptor (Homo sapiens) (UniProt P41143); test: Opiate delta (OP1, DOP) Eurofins-Panlabs radioligand binding assay; conditions: Compound concentration 10.0 uM
monoamine oxidase MAO-A = monoamine oxidase MAO-A (Homo sapiens, UniProt P21397); test: Inhibition of Monoamine Oxidase MAO-A at compound concentration of 10.0 uM in the Eurofins-Panlabs enzyme assay (Eurofins_assay_140010); design: substrate with concentration 50 uM Kynuramine, incubation time 60 min, incubation temperature 37 C; conditions: recombinant human MAO-A expressed in insect Hi5 cells, probe kynuramine (50 uM), compound concentration 10 uM
[20] = target: Prostaglandin E2 receptor EP1 subtype (Homo sapiens) (UniProt P34995); test: Prostanoid EP1 Eurofins-Panlabs radioligand binding assay; conditions: Compound concentration 10.0 uM
[21] = target: D(3) dopamine receptor (Homo sapiens) (UniProt P35462); conditions: Compound concentration 10.0 uM
[22] = target: Muscarinic acetylcholine receptor M3 (Homo sapiens) (UniProt P20309); conditions: Compound concentration 10.0 uM
[23] = target: Sodium-dependent serotonin transporter (Homo sapiens) (UniProt P31645); conditions: Compound concentration 10.0 uM
[24] = target: Adenosine receptor A2a (Homo sapiens) (UniProt P29274); conditions: Compound concentration 10.0 uM
[25] = target: Sodium-dependent dopamine transporter (Homo sapiens) (UniProt Q01959); conditions: Compound concentration 10.0 uM
Rattus norvegicus [26] = species: Rattus norvegicus; conditions: Compound concentration 10.0 uM
[27] = target: D(1B) dopamine receptor (Homo sapiens) (UniProt P21918); conditions: Compound concentration 10.0 uM
[28] = target: Melanocortin receptor 3 (Homo sapiens) (UniProt P41968); test: Inhibition of Melanocortin MC3 at 10 µM in the Eurofins-Panlabs radioligand binding assay (Eurofins_assay_251300); design: ligand concentration 0.035 nM; conditions: Compound concentration 10.0 uM
Rattus norvegicus [29] = species: Rattus norvegicus; test: Serotonin (5-Hydroxytryptamine) 5-HT1, Non-Selective Eurofins-Panlabs radioligand binding assay; assay type: protein assay; conditions: Compound concentration 10.0 uM
[30] = target: Prostaglandin E2 receptor EP4 subtype (Homo sapiens) (UniProt P35408); test: Prostanoid EP4 Eurofins-Panlabs radioligand binding assay; design: ligand concentration 0.5 nM; conditions: Compound concentration 10.0 uM
[31] = target: Platelet-activating factor receptor (Homo sapiens) (UniProt P25105); test: Inhibition of Platelet Activating Factor (PAF) at 10 µM in the Eurofins-Panlabs radioligand binding assay (Eurofins_assay_265010); conditions: Compound concentration 10.0 uM
[32] = target: D(1A) dopamine receptor (Homo sapiens) (UniProt P21728); conditions: Compound concentration 10.0 uM
[33] = target: Melatonin receptor (Gallus gallus) (UniProt P49288+P51050+P49285); test: Melatonin MT, Non-Selective Eurofins-Panlabs radioligand binding assay; assay type: protein assay; conditions: Compound concentration 10.0 uM
[34] = target: Cathepsin G (Homo sapiens) (UniProt P08311); test: Inhibition of Peptidase, CTSG (Cathepsin G) at 10 µM in the Eurofins-Panlabs enzyme assay (Eurofins_assay_112510); design: substrate with concentration; conditions: Compound concentration 10.0 uM
Caspase-8 (Homo sapiens) = Caspase-8 (Homo sapiens) (UniProt Q14790); test: Peptidase, CASP8 (Caspase 8) Eurofins-Panlabs enzyme assay; conditions: Compound concentration 10.0 uM
monoamine oxidase MAO-B = monoamine oxidase MAO-B (Homo sapiens, UniProt P27338); test: Inhibition of Monoamine Oxidase MAO-B at compound concentration of 10.0 uM in the Eurofins-Panlabs enzyme assay (Eurofins_assay_140120); design: substrate with concentration 50 uM Kynuramine, incubation time 60 min, incubation temperature 37 C; conditions: recombinant human MAO-B expressed in insect Hi5 cells, probe kynuramine (50 uM), compound concentration 10 uM
[35] = target: Phosphodiesterase PDE1 (Bos taurus) (UniProt Q01061+P14100+A0A3Q1MCV4); test: Phosphodiesterase PDE1 Eurofins-Panlabs enzyme assay; assay type: protein assay; design: substrate with concentration [3H] cAMP + cAMP, incubation time 20 min, incubation temperature 25 °C; conditions: Compound concentration 100.0 uM
[36] = target: GABA-A receptor; anion channel (Rattus norvegicus) (UniProt O09028+P15431+P18506+P18508+P19969+P20236+P23574+P23576+P28471+P28473+P30191+P62813+P63079+P63138+Q91ZM7+Q9ES14); conditions: Compound concentration 10.0 uM
[37] = target: Estrogen receptor (Homo sapiens) (UniProt P03372); conditions: Compound concentration 10.0 uM
[38] = target: Cannabinoid receptor 1 (Homo sapiens) (UniProt P21554); test: Cannabinoid CB1 Eurofins-Panlabs radioligand binding assay; conditions: Compound concentration 10.0 uM

Cyclin-dependent kinase-like 5 (Homo sapiens), sequence (O76039 whole entry): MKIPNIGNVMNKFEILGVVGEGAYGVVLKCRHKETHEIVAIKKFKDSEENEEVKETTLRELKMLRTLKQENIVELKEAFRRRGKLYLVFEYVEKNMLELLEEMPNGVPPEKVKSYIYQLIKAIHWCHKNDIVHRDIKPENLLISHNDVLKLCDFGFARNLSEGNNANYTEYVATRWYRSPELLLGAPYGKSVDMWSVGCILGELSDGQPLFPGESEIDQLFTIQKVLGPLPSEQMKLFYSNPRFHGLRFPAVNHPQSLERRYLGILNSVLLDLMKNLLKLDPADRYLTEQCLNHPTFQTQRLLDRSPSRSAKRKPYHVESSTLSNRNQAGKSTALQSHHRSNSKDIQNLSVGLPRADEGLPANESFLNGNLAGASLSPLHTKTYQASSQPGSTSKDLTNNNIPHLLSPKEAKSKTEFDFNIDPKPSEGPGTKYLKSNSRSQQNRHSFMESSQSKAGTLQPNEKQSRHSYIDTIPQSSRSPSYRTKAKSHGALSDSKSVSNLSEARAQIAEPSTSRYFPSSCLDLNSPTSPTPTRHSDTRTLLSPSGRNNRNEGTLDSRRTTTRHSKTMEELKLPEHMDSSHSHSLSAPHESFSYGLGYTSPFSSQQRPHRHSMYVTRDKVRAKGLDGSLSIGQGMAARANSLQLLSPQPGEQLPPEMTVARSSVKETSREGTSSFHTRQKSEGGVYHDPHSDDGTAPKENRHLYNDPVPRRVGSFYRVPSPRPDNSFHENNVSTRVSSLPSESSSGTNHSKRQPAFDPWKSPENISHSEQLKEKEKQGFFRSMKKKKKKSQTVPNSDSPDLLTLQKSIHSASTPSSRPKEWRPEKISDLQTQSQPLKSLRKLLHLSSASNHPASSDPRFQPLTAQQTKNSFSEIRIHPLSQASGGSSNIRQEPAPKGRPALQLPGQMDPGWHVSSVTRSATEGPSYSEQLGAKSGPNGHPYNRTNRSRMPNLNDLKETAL
Tyrosine-protein kinase BTK (Homo sapiens), sequence (Q06187 whole entry): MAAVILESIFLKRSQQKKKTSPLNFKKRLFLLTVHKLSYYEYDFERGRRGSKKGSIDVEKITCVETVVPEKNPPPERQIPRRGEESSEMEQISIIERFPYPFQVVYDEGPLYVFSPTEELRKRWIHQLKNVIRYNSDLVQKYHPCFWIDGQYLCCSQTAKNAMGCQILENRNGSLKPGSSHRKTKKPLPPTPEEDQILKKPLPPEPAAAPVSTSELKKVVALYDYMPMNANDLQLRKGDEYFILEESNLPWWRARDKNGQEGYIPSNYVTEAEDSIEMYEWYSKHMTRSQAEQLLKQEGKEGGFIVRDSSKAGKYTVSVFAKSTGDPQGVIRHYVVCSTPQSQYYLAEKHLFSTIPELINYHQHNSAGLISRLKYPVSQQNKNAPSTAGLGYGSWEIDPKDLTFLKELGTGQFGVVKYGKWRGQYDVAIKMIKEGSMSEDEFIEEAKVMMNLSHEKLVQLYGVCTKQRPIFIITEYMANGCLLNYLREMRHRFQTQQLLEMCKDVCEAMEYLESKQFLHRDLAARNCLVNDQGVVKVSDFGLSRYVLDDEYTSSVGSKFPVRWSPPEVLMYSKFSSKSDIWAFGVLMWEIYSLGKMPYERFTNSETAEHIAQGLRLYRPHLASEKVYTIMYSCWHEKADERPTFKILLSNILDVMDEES
Serine/threonine-protein kinase PAK 3 (Homo sapiens), sequence (O75914 whole entry, looked up): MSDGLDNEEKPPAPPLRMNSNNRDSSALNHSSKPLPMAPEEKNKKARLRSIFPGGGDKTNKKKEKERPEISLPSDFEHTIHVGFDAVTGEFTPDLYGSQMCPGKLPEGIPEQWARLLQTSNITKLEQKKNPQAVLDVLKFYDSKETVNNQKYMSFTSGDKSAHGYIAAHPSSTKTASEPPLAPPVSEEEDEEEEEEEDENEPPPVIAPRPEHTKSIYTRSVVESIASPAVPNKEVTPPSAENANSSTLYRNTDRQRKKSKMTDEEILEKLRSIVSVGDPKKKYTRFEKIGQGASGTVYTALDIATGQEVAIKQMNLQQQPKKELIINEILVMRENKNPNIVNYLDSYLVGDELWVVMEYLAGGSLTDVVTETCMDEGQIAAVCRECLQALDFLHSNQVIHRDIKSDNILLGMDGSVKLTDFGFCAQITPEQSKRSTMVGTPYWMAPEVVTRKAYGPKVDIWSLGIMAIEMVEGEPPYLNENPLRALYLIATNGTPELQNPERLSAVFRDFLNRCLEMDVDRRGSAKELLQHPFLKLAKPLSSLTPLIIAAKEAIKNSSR
Mitogen-activated protein kinase kinase kinase 10 (Homo sapiens), sequence (Q02779 whole entry, looked up): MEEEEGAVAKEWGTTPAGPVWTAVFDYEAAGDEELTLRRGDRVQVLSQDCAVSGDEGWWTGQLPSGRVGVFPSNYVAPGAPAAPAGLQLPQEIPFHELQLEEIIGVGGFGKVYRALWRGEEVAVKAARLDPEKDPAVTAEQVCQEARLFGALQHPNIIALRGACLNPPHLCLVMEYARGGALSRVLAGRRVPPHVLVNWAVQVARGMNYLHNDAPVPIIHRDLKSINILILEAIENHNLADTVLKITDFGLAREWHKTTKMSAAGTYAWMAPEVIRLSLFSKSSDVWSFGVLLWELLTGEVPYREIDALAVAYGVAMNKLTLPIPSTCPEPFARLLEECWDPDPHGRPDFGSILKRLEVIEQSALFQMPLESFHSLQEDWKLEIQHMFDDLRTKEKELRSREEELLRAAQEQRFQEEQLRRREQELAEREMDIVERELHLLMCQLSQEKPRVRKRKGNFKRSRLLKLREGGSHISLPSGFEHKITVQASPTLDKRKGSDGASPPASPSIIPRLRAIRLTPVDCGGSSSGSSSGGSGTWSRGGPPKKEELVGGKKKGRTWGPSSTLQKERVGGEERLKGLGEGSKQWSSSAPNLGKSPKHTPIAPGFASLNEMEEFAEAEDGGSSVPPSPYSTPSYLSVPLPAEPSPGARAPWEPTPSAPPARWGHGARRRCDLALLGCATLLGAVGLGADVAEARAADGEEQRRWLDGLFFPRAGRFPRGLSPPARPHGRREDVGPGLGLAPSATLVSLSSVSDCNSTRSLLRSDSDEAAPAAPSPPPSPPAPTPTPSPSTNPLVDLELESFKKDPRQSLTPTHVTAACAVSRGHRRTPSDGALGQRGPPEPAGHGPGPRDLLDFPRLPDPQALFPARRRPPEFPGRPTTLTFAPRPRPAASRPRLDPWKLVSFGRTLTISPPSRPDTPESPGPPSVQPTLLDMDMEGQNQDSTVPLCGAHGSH
NUAK family SNF1-like kinase 1 (Homo sapiens), sequence (O60285 whole entry): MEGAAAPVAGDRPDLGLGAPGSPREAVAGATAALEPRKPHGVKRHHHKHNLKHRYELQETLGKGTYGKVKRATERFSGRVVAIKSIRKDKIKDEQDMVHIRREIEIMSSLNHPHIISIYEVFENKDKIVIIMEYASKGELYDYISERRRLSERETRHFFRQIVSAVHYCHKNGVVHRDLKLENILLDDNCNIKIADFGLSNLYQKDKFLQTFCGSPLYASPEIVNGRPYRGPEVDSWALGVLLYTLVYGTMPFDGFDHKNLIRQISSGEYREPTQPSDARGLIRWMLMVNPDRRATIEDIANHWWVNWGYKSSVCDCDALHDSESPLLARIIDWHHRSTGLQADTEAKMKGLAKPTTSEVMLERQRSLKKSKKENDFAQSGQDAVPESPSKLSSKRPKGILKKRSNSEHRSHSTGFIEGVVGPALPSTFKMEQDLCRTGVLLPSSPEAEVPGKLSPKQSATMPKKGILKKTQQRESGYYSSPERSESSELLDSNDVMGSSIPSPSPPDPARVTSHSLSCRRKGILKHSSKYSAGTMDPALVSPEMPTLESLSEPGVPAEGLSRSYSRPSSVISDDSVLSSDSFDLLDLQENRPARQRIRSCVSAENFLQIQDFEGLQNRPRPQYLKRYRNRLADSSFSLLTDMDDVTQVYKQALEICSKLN
Phosphatidylinositol 4,5-bisphosphate 3-kinase catalytic subunit alpha isoform (Homo sapiens), P42336 [E542K], sequence (P42336 whole entry E542K, canonical isoform): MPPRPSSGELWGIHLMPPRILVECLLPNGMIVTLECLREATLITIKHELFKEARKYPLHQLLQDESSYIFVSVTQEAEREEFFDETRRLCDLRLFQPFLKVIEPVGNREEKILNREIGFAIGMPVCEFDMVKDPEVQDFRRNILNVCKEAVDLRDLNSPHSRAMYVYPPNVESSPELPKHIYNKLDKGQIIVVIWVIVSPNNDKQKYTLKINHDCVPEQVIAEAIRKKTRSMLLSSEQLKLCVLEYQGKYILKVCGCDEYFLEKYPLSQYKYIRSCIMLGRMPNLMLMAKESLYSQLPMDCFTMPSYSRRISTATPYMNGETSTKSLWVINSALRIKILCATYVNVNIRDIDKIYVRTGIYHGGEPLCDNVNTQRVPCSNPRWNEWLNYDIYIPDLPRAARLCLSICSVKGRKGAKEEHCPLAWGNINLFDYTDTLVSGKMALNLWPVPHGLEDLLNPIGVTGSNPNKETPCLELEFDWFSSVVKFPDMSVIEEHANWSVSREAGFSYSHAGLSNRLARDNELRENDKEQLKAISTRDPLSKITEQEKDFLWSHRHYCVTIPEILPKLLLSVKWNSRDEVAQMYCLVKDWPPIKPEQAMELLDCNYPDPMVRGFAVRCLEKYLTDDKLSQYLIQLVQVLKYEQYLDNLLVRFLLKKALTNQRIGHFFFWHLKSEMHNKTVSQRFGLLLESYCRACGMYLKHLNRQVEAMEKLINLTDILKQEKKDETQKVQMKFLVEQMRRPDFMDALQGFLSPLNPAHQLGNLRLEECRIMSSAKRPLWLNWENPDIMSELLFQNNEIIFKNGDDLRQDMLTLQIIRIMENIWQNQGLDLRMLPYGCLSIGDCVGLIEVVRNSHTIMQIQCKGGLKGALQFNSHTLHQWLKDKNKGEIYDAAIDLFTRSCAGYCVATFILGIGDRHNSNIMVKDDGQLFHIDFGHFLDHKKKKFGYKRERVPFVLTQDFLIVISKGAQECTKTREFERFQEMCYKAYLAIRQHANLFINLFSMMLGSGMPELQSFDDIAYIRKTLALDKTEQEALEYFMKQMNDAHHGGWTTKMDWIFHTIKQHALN

N#CC1(c2ccccn2)CCN(Cc2cc(C(=O)N3CCCC3)c(=O)n3ccccc23)CC1
residual activity [1]: 85% | residual activity [2]: 100% | residual activity [3]: 89% | residual activity [4]: 100% | residual activity [5]: 100% | residual activity [6]: 100% | residual activity [7]: 86% | residual activity [8]: 100% | residual activity [9]: 100% | residual activity [10]: 73% | residual activity [11]: 90% | residual activity [12]: 100% | residual activity [13]: 100%

N#CC1(c2ccccn2)CCN(Cc2cc(C(=O)O)c(=O)n3ccccc23)CC1 [MSD-M1PAM]
inhibition [14]: 0% | residual activity [1]: 95% | inhibition [15]: -3% | residual activity [2]: 97% | residual activity [3]: 84% | inhibition [16]: 14% | inhibition [17]: 1% | residual activity [4]: 100% | inhibition [18]: 2% | inhibition [19]: 19% | residual activity [5]: 100% | inhibition at 60 min, 10 µM (monoamine oxidase MAO-A): 12% (not active) | inhibition [20]: 14% | inhibition [21]: -7.39% | inhibition [22]: 3% | residual activity [6]: 75% | inhibition [23]: 19% | inhibition [24]: 6% | inhibition [25]: 0% | residual activity [7]: 98% | inhibition (Rattus norvegicus [26]): -4% | inhibition [27]: -2.87% | inhibition [28]: 1% | inhibition (Rattus norvegicus [29]): 5% | inhibition [30]: -4% | inhibition [31]: -5% | inhibition [32]: 6% | residual activity [8]: 95% | residual activity [9]: 95% | inhibition [33]: -6% | inhibition [34]: 10% | inhibition (Caspase-8 (Homo sapiens)): 9% | inhibition at 60 min, 10 µM (monoamine oxidase MAO-B): -5% (not active) | inhibition [35]: 28% | residual activity [11]: 87% | inhibition [36]: 18% | inhibition [37]: -1% | residual activity [12]: 97% | residual activity [13]: 100% | inhibition [38]: -3%
